Data: patent US8541243B2, “Method for assessment of folate phenotypes, disease risk and response to therapy” (The Trustees of the University of Pennsylvania, priority 2008, dated 2013)

Experiments:
[1] = Stability of folates under the acidic/basic conditions of sample work-up; format: physicochemical
Procedure: (§1) An aliquot of the resulting solution (50 μL) was then analyzed by LC-MRM/MS.
5-FTHF and 10-FTHF undergo dehydration to 5,10-MTHF under acidic conditions in a pH-dependent manner (FIG. 1). In contrast, under neutral or alkaline pH conditions, 5,10-MTHF is converted into 10-FTHF, which then slowly interconverts with 5-FTHF. These different forms of folate are present in RBCs primarily in polyglutamated forms. […] This made it difficult to reliably quantify the individual amounts of 5-FTHF, 10-FTHF, and 5,10-MTHF in the RBCs. Conversion of 5-FTHF and 10-FTHF into 5,10-MTHF proceeded quantitatively at pH 1.5. As a result, it was possible to accurately quantify the pool of folate precursors available for conversion into 5,10-METHF simply by acidifying the RBC extract (FIG. 1). […] They were then acidified to pH 1.5 with 1M HCl ready for analysis of the 5-METHF precursors as 5,10-MTHF (FIG. 1). The [^13C5]-5-FTHF internal standard was quantitatively converted into [^13C5]-5,10-MTHF, which made it possible to accurately quantify the amount of unlabeled 5-FTHF and 10-FTHF, as well as any 5,10-MTHF that had been present in the sample originally. […] However, it is so rapidly utilized in cellular processes by enzymes such as MTHFR, serine hydroxymethyltransferase, and thymidylate synthase (FIG. 6) that it is unlikely to be present in significant quantities.

plasma folate = assay: Plasma folates (LC-MRM/MS) before and after low dose MTX treatment of arthritis patients; format: in vivo, human; conditions: 24 wk of MTX, Caucasians, 119 pairs
Procedure: To each plasma sample (300 μL) was added water (200 μL) containing 1% ascorbic acid and 10 mM 2-mercaptoethanol. After the addition of 20 μL internal standard solution (150 pg/μL each of [^13C5]-FA, [^13C5]-THF, [^13C5]-5-MTHF, and [^13C5]-5-FTHF) the samples were thoroughly mixed. Water (1 mL) containing 1% ascorbic acid and 1% methanol was added prior to purification using SPE columns.
The following experiments were designed to assess the phenotypic changes elicited by low dose methotrexate (MTX) treatment. MTX has been widely used as the anti-inflammatory and immunomodulatory agent for the treatment of patients with rheumatoid arthritis and other inflammatory disorders by weekly low-dose (7.5-25 mg).
This indicates a quantitative and qualitative modification of folate phenotype (even though folic acid supplements were prescribed along with the MTX) that results in elevated MCP-1 concentrations (p<0.0001).

RBC folate = RBC folate derivatives (LC-MRM/MS) before and after low dose MTX treatment of arthritis patients; format: in vivo, human; conditions: ratio, 24 wk of MTX, Caucasians, 115 pairs
Procedure: Eight calibration standards were prepared in the range 4.5 to 900 nmol/L in 1% ascorbic acid and 10 mM 2-mercaptoethanol (to prevent oxidation). To 500 μL of whole blood (1:10 diluted with 1% ascorbic acid) was added 20 μL of internal standard solution (150 pg/μL each of [^13C5]-FA, [^13C5]-THF, [^13C5]-5-MTHF, and [^13C5]-5-FTHF). For hydrolysis of folylpolyglutamates, 1N sodium hydroxide (6 μL) was added to each tube to adjust the pH to 5.0 and the samples were mixed immediately. In selected experiments, pteroylhepta-γ-L-glutamic acid (5 ng) was added to replicate […] RBC preparations from five different subjects in order to monitor the efficiency of folylpolyglutamate hydrolysis. […]
as §1
RBC folate concentrations were calculated according to the method of Lamers et al.(2006, Am. J. Clin. Nutr. 84(1):156-61): RBC folate={(whole blood folate×100)−[plasma folate×(100−hematocrit)]}/hematocrit.
Serum MCP-1 levels were measured using a human MCP-1 ELISA kit (BD Biosciences) according to the manufacturer's instructions. Total homocysteine (tHcy) and both plasma and red blood cell (RBC) folate derivatives were measured using stable isotope dilution liquid chromatography, multiple reaction monitoring, mass spectrometry (LC/MRM/MS) as described elsewhere herein. […]

Nc1nc2c(c(=O)[nH]1)N1CN(c3ccc(C(=O)N[C@@H](CCC(=O)O)C(=O)O)cc3)CC1CN2 (some centres unmarked) [5,10-METHF, 5,10-methylenetetrahydrofolic acid]
Stability under both acidic and basic conditions [1]: extremely unstable

CN(Cc1cnc2nc(N)nc(N)c2n1)c1ccc(C(=O)N[C@@H](CCC(=O)O)C(=O)O)cc1 [MTX, methotrexate]
Plasma FA (mean ± SD) (plasma folate; baseline 7.10 ± 26.62, folic acid supplements prescribed along with MTX): 36.20 ± 63.60 | Plasma 5MTH (mean ± SD) (plasma folate; baseline 53.14 ± 31.14): 39.90 ± 31.51 | RBC (5,10MT/5MTH) (mean ± SD) (RBC folate; baseline 0.026 ± 0.095): 0.051 ± 0.241 | RBC(THF/5MTH) (mean ± SD) (RBC folate; baseline 0.118 ± 0.387): 0.175 ± 0.757
